Measurements: patent publication US20250230226A1, “PLXDC1/PLXDC2 ACTIVATORS AND THEIR USE IN THE TREATMENT OF BLOOD VESSEL DISORDERS” (THE REGENTS OF THE UNIVERSITY OF CALIFORNIA, priority 2019, published 2025)

Tests used:
[1] = system: CT26.CL25 colon cancer tumor endothelial cells; experiment: Colon CT26 ex vivo model of tumor angiogenesis; type: cell-based, mouse
In short: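 Cell death was read by FDA (live, green) and PI (dead, red) fluorescence imaging, e.g. 48 h after treatment. Treatment began once endothelial cells had grown out of Matrigel-embedded CT26 colon tumor fragments, typically after 7 days of culture in endothelial growth medium at 37 °C.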

[2] = system: LL/2 lung cancer tumor endothelial cells; experiment: Lung LL2 ex vivo model of tumor angiogenesis; type: cell-based, mouse; conditions: for 48 hrs (morphology observations): LL/2 tumor endothelial cells; for Cell death: drug treatment for two days, ratio of red area to total endothelial cell area; for cytotoxicity at 40 µM / cytotoxicity at 20 µM: Mus musculus, Endothelial cell, 48 h, read-out: Cell death
In short: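 Live/dead imaging with FDA and PI, taken e.g. 48 h post-drug under fixed channel settings, measures treatment effects on endothelial cells sprouting from Lewis lung tumor explants. Explants were seeded in Matrigel drops and grown ~4 days in endothelial growth medium, 37 °C, 5% CO2, before dosing.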

[3] = Mus musculus, Endothelial cell, 48 h, read-out: Cell death

Structure (SMILES)	48 hrs (morphology observations after 48 hours) ([1]; Conc. 40 μm)	cytotoxicity at 40 µM [1, 3]	48 hrs (morphology observations) ([2]; 40 μm)	Cell death ([2]; 40 μm)	also measured
CCCCCCCOc1ccc(S(=O)(=O)c2cnc3ccc([S+](C)[O-])cc3c2N2CCCN(CCN3CCCCC3)CC2)cc1 (centres unmarked) [Compound 255]	–	–	–	–	48 hrs (morphology observations after 48 hours) ([1]; Conc. 10 μm): 0; cytotoxicity at 10 µM [1, 3]: 0%; 48 hrs (morphology observations) ([2]; 20 μm): * (50% or less of cells vesicularize in cell shape); Cell death ([2]; 20 μm): 10%
CCCN(CCC)c1c(S(=O)(=O)c2ccc(OC)c(OC)c2)cnc2ccc(OC(F)(F)F)cc12 [Compound 71]	0	0%	* (50% or less of cells vesicularize in cell shape)	10%	–
CCCCOc1ccc(S(=O)(=O)c2cnc3ccc(C(=O)OCC)cc3c2N2CCC(N3CCC(O)CC3)CC2)cc1 [Compound 161]	**** (100% of endothelial cells vesicularize in cell shape and look flattened in morphology (indicating disintegration of the cell body))	100%	**** (100% of endothelial cells vesicularize in cell shape and look flattened in morphology (indicating disintegration of the cell body))	90%	–
CCCCOc1ccc(S(=O)(=O)c2cnc3ccc(C(=O)OCC)cc3c2N2CCCN(C)CC2)cc1 [Compound 158]	**** (100% of endothelial cells vesicularize in cell shape and look flattened in morphology (indicating disintegration of the cell body))	100%	**** (100% of endothelial cells vesicularize in cell shape and look flattened in morphology (indicating disintegration of the cell body))	–	cytotoxicity at 40 µM [2]: 100%
CCCCOc1ccc(S(=O)(=O)c2cnc3ccc(SC)cc3c2N2CCCN(C)CC2)cc1 [Compound 160]	**** (100% of endothelial cells vesicularize in cell shape and look flattened in morphology (indicating disintegration of the cell body))	100%	**** (100% of endothelial cells vesicularize in cell shape and look flattened in morphology (indicating disintegration of the cell body))	–	cytotoxicity at 40 µM [2]: 100%
COc1ccc(S(=O)(=O)c2cnc3ccc([N+](=O)[O-])cc3c2-n2cncn2)cc1 [Compound 97]	–	–	–	–	48 hrs (morphology observations after 48 hours) ([1]; Conc. 10 μm): *** (100% of endothelial cells vesicularize in cell shape); cytotoxicity at 10 µM [1, 3]: 100%; Cell death ([2]; 20 μm): 50%
CCCCOc1ccc(S(=O)(=O)c2cnc3ccc([S+](C)[O-])cc3c2N2CCCN(CCN3CCCCC3)CC2)cc1 (centres unmarked) [Compound 209]	*** (100% of endothelial cells vesicularize in cell shape)	90%	* (50% or less of cells vesicularize in cell shape)	60%	–
CCc1ccc(S(=O)(=O)c2cnc3ccc([N+](=O)[O-])cc3c2N2CCC(O)CC2)cc1 [Compound 75]	0	0%	–	80%	–
CCCCOc1ccc(S(=O)(=O)c2cnc3ccc([S+](C)[O-])cc3c2N2CCCN(C)CC2)cc1 (centres unmarked) [Compound 163]	**** (100% of endothelial cells vesicularize in cell shape and look flattened in morphology (indicating disintegration of the cell body))	100%	**** (100% of endothelial cells vesicularize in cell shape and look flattened in morphology (indicating disintegration of the cell body))	95%	–
CCCCOc1ccc(S(=O)(=O)c2cnc3ccc(OC(F)(F)F)cc3c2N2CCC(N3CCCCC3)CC2)cc1 [Compound 119]	–	–	–	–	48 hrs (morphology observations after 48 hours) ([1]; Conc. 20 μm): 0; cytotoxicity at 20 µM [1, 3]: 50%; 48 hrs (morphology observations) ([2]; 20 μm): *** (more than 50% but less than 100% of endothelial cells vesicularize in cell shape); Cell death ([2]; 20 μm): 100%
COc1ccc(S(=O)(=O)c2cnc3ccc(CC#N)cc3c2NN2CCN(C)CC2)cc1 [Compound 99]	0	0%	–	10%	–
CCCCOc1ccc(S(=O)(=O)c2cnc3ccc(C(=O)OCC)cc3c2N2CCC(N3CCC(c4ccccc4)CC3)CC2)cc1 [Compound 215]	0	20%	0	–	cytotoxicity at 40 µM [2]: 30%
CCCCOc1ccc(S(=O)(=O)c2cnc3ccc(SC)cc3c2N2CCC(N3CCC(O)CC3)CC2)cc1 [Compound 162]	*** (100% of endothelial cells vesicularize in cell shape)	–	*** (more than 50% but less than 100% of endothelial cells vesicularize in cell shape)	70%	–
CCOC(=O)c1ccc2ncc(S(=O)(=O)c3ccc(CC)cc3)c(-n3cncn3)c2c1 [Compound 80]	–	–	–	–	48 hrs (morphology observations after 48 hours) ([1]; Conc. 10 μm): *** (100% of endothelial cells vesicularize in cell shape); cytotoxicity at 10 µM [1, 3]: 100%; 48 hrs (morphology observations) ([2]; 20 μm): *** (more than 50% but less than 100% of endothelial cells vesicularize in cell shape); cytotoxicity at 20 µM [2]: 100%
O=S(=O)(c1ccc(OC(F)(F)F)cc1)c1cnc2ccc(OC(F)(F)F)cc2c1-n1cncn1 [Compound 91]	–	–	–	–	48 hrs (morphology observations after 48 hours) ([1]; Conc. 10 μm): *** (100% of endothelial cells vesicularize in cell shape); cytotoxicity at 10 µM [1, 3]: 100%; 48 hrs (morphology observations) ([2]; 20 μm): *** (more than 50% but less than 100% of endothelial cells vesicularize in cell shape); cytotoxicity at 20 µM [2]: 80%
CCCCOc1ccc(S(=O)(=O)c2cnc3ccc(C(=O)N(CC)CC)cc3c2N2CCC(N3CCCCC3)CC2)cc1 [Compound 201]	* (50% or less of cells vesicularize in cell shape)	10%	0	30%	–
CCCCOc1ccc(S(=O)(=O)c2cnc3ccc(C(=O)OCC)cc3c2N2CCSCC2)cc1 [Compound 191]	0	10%	–	30%	–
CCCCOc1ccc(S(=O)(=O)c2cnc3ccc(SC)cc3c2N2CCC(N3CCCCC3)CC2)cc1 [Compound 159]	**** (100% of endothelial cells vesicularize in cell shape and look flattened in morphology (indicating disintegration of the cell body))	100%	**** (100% of endothelial cells vesicularize in cell shape and look flattened in morphology (indicating disintegration of the cell body))	–	cytotoxicity at 40 µM [2]: 100%
COc1ccc(S(=O)(=O)c2cnc3ccc(OC(F)(F)F)cc3c2NN2CCN(C)CC2)cc1 [Compound 85]	0	50%	–	80%	–
CCc1ccc(S(=O)(=O)c2cnc3ccc(C(=O)O)cc3c2N2CCC(O)CC2)cc1 [Compound 65]	0	0%	–	10%	–
CCCCCCCOc1ccc(S(=O)(=O)c2cnc3ccc([S+](C)[O-])cc3c2N2CCC(N3CCCC(O)C3)CC2)cc1 (centres unmarked) [Compound 254]	–	–	–	–	48 hrs (morphology observations after 48 hours) ([1]; Conc. 10 μm): ** (more than 50% but less than 100% of endothelial cells vesicularize in cell shape); cytotoxicity at 10 µM [1, 3]: 40%; 48 hrs (morphology observations) ([2]; 20 μm): *** (more than 50% but less than 100% of endothelial cells vesicularize in cell shape); Cell death ([2]; 20 μm): 100%
CCOC(=O)c1ccc2ncc(S(=O)(=O)c3ccc(CC)cc3)c(N3CCCN(C)CC3)c2c1 [Compound 63]	*** (100% of endothelial cells vesicularize in cell shape)	70%	–	50%	–
CCCCOc1ccc(S(=O)(=O)c2cnc3ccc(C(=O)OCC)cc3c2N2CCC(N3CCCN(C)CC3)CC2)cc1 [Compound 211]	**** (100% of endothelial cells vesicularize in cell shape and look flattened in morphology (indicating disintegration of the cell body))	100%	**** (100% of endothelial cells vesicularize in cell shape and look flattened in morphology (indicating disintegration of the cell body))	–	cytotoxicity at 40 µM [2]: 100%
CCc1ccc(S(=O)(=O)c2cnc3ccc(OC(F)(F)F)cc3c2NCCO)cc1 [Compound 95]	0	0%	–	10%	–
N#Cc1ccc(S(=O)(=O)c2cnc3ccc(OC(F)(F)F)cc3c2N2CCC(N3CCCCC3)CC2)cc1 [Compound 54]	0	10%	–	50%	–
COc1ccc(S(=O)(=O)c2cnc3ccc([N+](=O)[O-])cc3c2NN2CCN(C)CC2)cc1 [Compound 94]	0	0%	–	20%	–
CCCCCCCOc1ccc(S(=O)(=O)c2cnc3ccc([S+](C)[O-])cc3c2N2CCCN(C)CC2)cc1 (centres unmarked) [Compound 220]	**** (100% of endothelial cells vesicularize in cell shape and look flattened in morphology (indicating disintegration of the cell body))	100%	**** (100% of endothelial cells vesicularize in cell shape and look flattened in morphology (indicating disintegration of the cell body))	–	cytotoxicity at 40 µM [2]: 100%
CCCCOc1ccc(S(=O)(=O)c2cnc3ccc(OC(F)(F)F)cc3c2NN2CCN(C)CC2)cc1 [Compound 92]	0	0%	–	–	Cell death ([2]; 20 μm): 10%
CN1CCN(Nc2c(S(=O)(=O)c3ccc(OC(F)(F)F)cc3)cnc3ccc(OC(F)(F)F)cc23)CC1 [Compound 90]	0	0%	0	–	cytotoxicity at 40 µM [2]: 10%
